Target: TNAP (Homo sapiens (Human), UniProt P05186)
Assay: TNAP (PPi) inhibition assay, pyrophosphate as substrate
Format: biochemical
In short: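 Enzyme source was conditioned serum-free medium from COS-1 cells transiently expressing tagged human TNAP, dialyzed against TBS with MgCl2/ZnCl2. Activity on natural substrate PPi at pH 7.4 read as liberated phosphate (Biomol Green).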

SMILES | IC50 [nM]
COc1ccc(Br)cc1S(=O)(=O)N(Cc1ccccc1)c1cnc2ccccc2c1 [Example VII-6, 5-Bromo-N-benzyl-2-methoxy-N-(quinolin-3-yl)benzenesulfonamide] | > 1000
COCCN(c1cnc2ccccc2c1)S(=O)(=O)c1cc(Br)ccc1OC [Example VII-7, 5-Bromo-2-methoxy-N-(2-methoxyethyl)-N-(quinolin-3-yl)benzenesulfonamide] | > 1000
COc1ccc(Br)cc1S(=O)(=O)N(CCN(C)C)c1cnc2ccccc2c1 [Example VII-9, 5-Bromo-N-(2-(dimethylamino)ethyl)-2-methoxy-N-(quinolin-3-yl)benzenesulfonamide] | > 1000
C=CCN(c1cnc2ccccc2c1)S(=O)(=O)c1cc(Br)ccc1OC [Example VII-10, N-allyl-5-bromo-2-methoxy-N-(quinolin-3-yl)benzenesulfonamide] | > 1000
C#CCN(c1cnc2ccccc2c1)S(=O)(=O)c1cc(Br)ccc1OC [Example VII-11, 5-Bromo-2-methoxy-N-(prop-2-yn-1-yl)-N-(quinolin-3-yl)benzenesulfonamide] | > 1000
COc1ccc(OC)c(S(=O)(=O)N(C)c2cnc3ccccc3c2)c1 [Example VII-12, 2,5-Dimethoxy-N-methyl-N-(quinolin-3-yl)benzenesulfonamide] | > 1000
CCN(c1cnc2ccccc2c1)S(=O)(=O)c1cc(OC)ccc1OC [Example VII-13, 2,5-Dimethoxy-N-ethyl-N-(quinolin-3-yl)benzenesulfonamide] | > 1000
COc1ccc(OC)c(S(=O)(=O)N(c2cnc3ccccc3c2)C(C)C)c1 [Example VII-14, 2,5-Dimethoxy-N-isopropyl-N-(quinolin-3-yl)benzenesulfonamide] | > 1000
CCCCN(c1cnc2ccccc2c1)S(=O)(=O)c1cc(OC)ccc1OC [Example VII-15, 2,5-Dimethoxy-N-butyl-N-(quinolin-3-yl)benzenesulfonamide] | > 1000
COc1ccc(OC)c(S(=O)(=O)N(Cc2ccccc2)c2cnc3ccccc3c2)c1 [Example VII-16, 2,5-Dimethoxy-N-benzyl-N-(quinolin-3-yl)benzenesulfonamide] | > 1000
COCCN(c1cnc2ccccc2c1)S(=O)(=O)c1cc(OC)ccc1OC [Example VII-17, 2,5-Dimethoxy-N-(2-methoxyethyl)-N-(quinolin-3-yl)benzenesulfonamide] | > 1000
COCCCN(c1cnc2ccccc2c1)S(=O)(=O)c1cc(OC)ccc1OC [Example VII-18, 2,5-Dimethoxy-N-(3-methoxypropyl)-N-(quinolin-3-yl)benzenesulfonamide] | > 1000
COc1ccc(OC)c(S(=O)(=O)N(CCN(C)C)c2cnc3ccccc3c2)c1 [Example VII-19, N-(2-(Dimethylamino)ethyl)-2,5-dimethoxy-N-(quinolin-3-yl)benzenesulfonamide] | > 1000

Second part, the compound after the results:

IC50 [nM] | SMILES
> 1000 | C=CCN(c1cnc2ccccc2c1)S(=O)(=O)c1cc(OC)ccc1OC [Example VII-20, N-Allyl-2,5-dimethoxy-N-(quinolin-3-yl)benzenesulfonamide]
> 1000 | C#CCN(c1cnc2ccccc2c1)S(=O)(=O)c1cc(OC)ccc1OC [Example VII-21, 2,5-Dimethoxy-N-(prop-2-yn-1-yl)-N-(quinolin-3-yl)benzenesulfonamide]
> 1000 | COc1ccc(Br)cc1S(=O)(=O)Nc1ccc(N2CCOCC2)nc1 [Example VIII-1, 5-Bromo-2-methoxy-N-(6-morpholinopyridin-3-yl)benzenesulfonamide]
> 1000 | COc1ccc(OC)c(S(=O)(=O)Nc2ccc(N3CCOCC3)nc2)c1 [Example VIII-2, 2,5-Dimethoxy-N-(6-morpholinopyridin-3-yl)benzenesulfonamide]
> 1000 | COc1ccc(Br)cc1S(=O)(=O)Nc1ccc(N)nc1 [Example VIII-3, 5-Bromo-2-methoxy-N-(6-Amino-pyridin-3-yl)-benzenesulfonamide]
> 1000 | COc1ccc(OC)c(S(=O)(=O)Nc2ccc(N)nc2)c1 [Example VIII-4, 2,5-Dimethoxy-N-(6-Amino-pyridin-3-yl)-benzenesulfonamide]

Reference: US10370333B2 (Sanford Burnham Prebys Medical Discovery Institute, priority 2012, dated 2019)
